Measurements taken from patent publication US6538023B1, “Therapeutic uses of green tea polyphenols for sickle cell disease” (priority 2000, dated 2003).
Entries after “also recorded” stand apart in the source; their conditions may differ.

Tested on: sickle red blood cells (K-Cl cotransport)
Assay: Inhibition of dense cell formation triggered by 500 mM urea (K-Cl cotransport) in sickle red blood cells
Format: cell-based, human
Settings: 37 centigrade, 3 hours; for inhibition of dense cell formation (FIG. 4): 0.6 mM, oxygenated and deoxygenated conditions; for inhibition of dense cell formation: hematocrit 2%
Method: The reaction medium consists of: 150 mM NaCl, 1 mM MgSO4, 10 mM HEPES buffer and 10 mM glucose. The osmolarity of the medium was adjusted to 290 mOsm/kg using a freezing point osmometer and the pH was adjusted to 7.4
For in vitro tests, blood was obtained from adult sickle cell patients (using acid-citrate-dextrose as an anticoagulant) whose hemoglobin F content is less than 1% and whose content of irreversibly sickled cells is less than 10%. The blood could be used for 2 days as long as the air-space of the container was equilibrated with 95% air/5% CO2 and the container was gently tumbled (1 to 2 rpm) at 4° C.
Four ml of the density gradient solution (density=1.104) was poured into each of 15 ml COREX centrifuge tubes (Corning Glass), and the tubes were spun at 10,000 rpm for 5 min, by which a density gradient was automatically formed. Then, 100 μl of blood was overlayered on top of each pre-formed density gradient, and the tubes were span for 10 minutes at 2,500 rpm using a low speed centrifuge with a swing rotor.
When red blood cells of normal subject with normal hemoglobin were spun, they all stayed near a top portion of the gradient (FIG. 2A). […] Then, the red blood cells in the top layer of each tubes, which consists of “non-dense cells”, were collected, washed with the reaction medium, resuspended in the same medium, and used for the experiments.
As described above, tubes each containing 4 ml of the density gradient solution with the density of 1.104 were spun at 12,000 rpm for 5 min to form gradient density. K-Cl cotransport experiments were conducted by incubating a suspension of “non-dense cells” with the hematocrit value of 2% at 37 centigrade for 3 hours. Then, 50 μl of each non-dense cell suspension was overlayered on top of the pre-formed density gradient, and the tubes were span for 10 minutes at 2,500 rpm using a low speed centrifuge with a swing rotor. If 500 mM urea was added before the incubation, dense cells were formed due to the stimulation of K-Cl cotransport as shown in FIG. 2D.
When the bottom layer was formed, red cells in both the top and bottom layers were separately collected, washed and hemolyzed in 5 mM phosphate buffer (pH 7.4) containing 0.5 mM EDTA and 0.5% of a detergent, BRIJ-30. From the hemoglobin content as determined by spectrophotometry, we determined the percentage of dense cell formation (Ohnishi, S. T. British J. Haematology 55:665-671, 1983).
FIG. 3. Dense cells can be formed by incubating non-dense cells at 37 centigrade for 3 hours in the presence of 500 mM urea, which triggers K-Cl cotransport and concomitant dehydration. […] The formation can be inhibited by the addition of inhibitors before starting the incubation. […] However, neither 2 mM vitamin C nor 2 mM vitamin E inhibited the dense cell formation.
FIG. 4. The inhibition of dense cell formation triggered with 500 mM urea at 37 centigrade for 3 hours by different green tea polyphenols. Open columns are for the oxygenated condition and filled columns for the deoxygenated condition. Abbreviations. CH: (+)-Catechin; EC: (−)-Epicatechin; ECg: (−)-Epicatechin gallate; EGC: (−)-Epigallocatechin; and EGCg: (−)-Epigallocatechin gallate.

With `Oc1cc(O)c2c(c1)O[C@H](c1ccc(O)c(O)c1)[C@@H](O)C2` [CH, (+)-Catechin] the “inhibition of dense cell formation (FIG. 4)” value (“inhibition … (FIG. 4)” below) was “no effects”.

For `O=C(O[C@@H]1Cc2c(O)cc(O)cc2O[C@@H]1c1ccc(O)c(O)c1)c1cc(O)c(O)c(O)c1` [ECg, (−)-Epicatechin gallate], the “inhibition … (FIG. 4)” value was “significant effect”.

`Oc1cc(O)c2c(c1)O[C@H](c1cc(O)c(O)c(O)c1)[C@H](O)C2` [EGC, (−)-Epigallocatechin] was tested, and the “inhibition … (FIG. 4)” value was “significant effect”.

In the case of `O=C1O[C@H]([C@@H](O)CO)C(O)=C1O` [Vitamin C, reference compound], the “inhibition of dense cell formation” value (2 mM) was “no inhibitory effect”.

With `COC[C@@H]([C@H](O)[C@H](O)C(=O)NCC[C@H](C)c1nc(/C=C/C[C@@H]2O[C@]3(C[C@@H](O)[C@@H]2C)O[C@H]([C@H](C[C@H](O)[C@H](C)[C@H](O)[C@H](C)/C=C(C)/C(C)=C/C=C/C(C)=C\C#N)OC)[C@H](OP(=O)(O)O)C3(C)C)co1)N(C)C` [calyculin A, reference compound] the “inhibition of dense cell formation” value (25 nM) was “inhibited the dense cell formation completely”.

`C=C1[C@@H](O)[C@@H]2O[C@]3(CC[C@H](/C=C/[C@@H](C)[C@@H]4CC(C)=C[C@@]5(O[C@H](C[C@@](C)(O)C(=O)O)CC[C@H]5O)O4)O3)CC[C@H]2O[C@@H]1[C@@H](O)C[C@H](C)[C@H]1O[C@@]2(CCCCO2)CC[C@H]1C` [okadaic acid, reference compound] was tested, and the “inhibition of dense cell formation” value (100 nM) was “inhibited the dense cell formation completely”.

(−)-Epigallocatechin gallate [EGCg] was tested, and the “inhibition … (FIG. 4)” value was “significant effect; also recorded: maximum inhibitory effect” and the “inhibition of dense cell formation” value (0.2-0.6 mM) was “effectively inhibited dense cell formation”.

Vitamin E [reference compound] was tested, and the “inhibition of dense cell formation” value (2 mM) was “no inhibitory effect”.
